Results from PMC6408513, “A Novel Lactate Dehydrogenase Inhibitor, 1-(Phenylseleno)-4-(Trifluoromethyl) Benzene, Suppresses Tumor Growth through Apoptotic Cell Death” (Scientific Reports, 2019).
pIC50: −log10 of the molar value.

What was measured:
[1] = molecular target: T1, lactate dehydrogenase A (LDHA) (Homo sapiens, UniProt P00338); experiment: in vitro LDH activity assay by NADH fluorescence; Michaelis-Menten/Lineweaver-Burk; inhibits […]-pyruvate binding; format: biochemical; set-up: purified recombinant human LDHA
[2] = molecular target: T1, lactate dehydrogenase A (LDHA); experiment: […]-pyruvate radioligand binding to bead-bound LDHA, competed by unlabeled pyruvate; set-up: purified His tagged-LDHA
[3] = molecular target: T1, lactate dehydrogenase A (LDHA); experiment: in vitro LDH activity assay by NADH fluorescence; format: biochemical; set-up: purified recombinant human LDHA

FC(F)(F)c1ccc([Se]c2ccccc2)cc1 [PSTMB, 1-(phenylseleno)-4-(trifluoromethyl)benzene]
pIC50 [1]: 6.84

CC(=O)C(=O)O [pyruvate]
14C-pyruvate radioligand binding to bead-bound LDHA, competed by unlabeled pyruv [2]: The binding of pyruvate to LDHA was determined using C^14-labeled pyruvate.

c1ccc([Se]C2CCSC2)cc1 (stereo not drawn) [tetrahydro-3-(phenylseleno) thiophene]
in vitro LDH activity assay by NADH fluorescence [3]: tetrahydro-3-(phenylseleno) thiophene, and 1-methoxy-4-[(phenylmethyl)seleno]benzene had inhibitory effects on LDHA activity
